In paper PMC9403987 (Frontiers in Oncology, 2022):

Legend:
Experiment in all cases: Cell proliferation assay
Assay type in all cases: cell-based, Homo sapiens
A549 = conditions: A549, lung carcinoma, 72 hours
Description: (§1) To quantify cell proliferation, either the nuclei of live cells were counted following staining with 4’,6-diamidino-2-phenylindole (DAPI; Sigma-Aldrich, Burlington, MA, USA), or metabolically active cells were detected using a CellTiter-Glo assay (Promega Corporation, Madison, WI, USA). Cells from a range of human and mammalian tumor cell lines (American Type Culture Collection, Manassas, VA, USA) were seeded at 4000 cells per well in 100 μL of culture medium in a 96-well plate and incubated overnight at 37°C with 5% CO2. […] In the DAPI staining method, cells were washed using 1× phosphate-buffered saline (PBS; Gibco Thermo Fisher Scientific, Waltham, MA, USA), fixed with 4% formaldehyde, permeabilized with 0.2% Triton X-100 (Sigma-Aldrich), washed again, and stained with 1 μg/mL DAPI to visualize cell nuclei. Cells were washed with 1× PBS three times, and 100 μL 1× PBS was added to each well. Plates were scanned using an IN Cell Analyzer 2200 (GE Healthcare Life Sciences, Chicago, IL, USA) and the number of cells per well was recorded. In the CellTiter-Glo assay, 60 μL of CellTiter-Glo luminescent solution was added to each well after incubation with the test compounds, and the assay plate was scanned using a Tecan Infinite M1000 PRO microplate reader (Tecan Group AG, Männedorf, Switzerland) to record luminescent signals.

Caco-2 = conditions: Caco-2, colorectal carcinoma, 72 hours
Description: as §1

DLD-2 = conditions: DLD-2, colorectal carcinoma, 72 hours
Description: as §1

Daoy = conditions: brain, desmoplastic cerebellar medulloblastoma, 72 hours
Description: as §1

HCCC9810 = conditions: HCCC9810, liver, hepatocellular carcinoma, 72 hours
Description: as §1

HCT15 = conditions: HCT15, colorectal carcinoma, 72 hours
Description: as §1

HL7702 = conditions: HL7702, liver, 72 hours
Description: as §1

HLE = conditions: liver, hepatocellular carcinoma, 72 hours
Description: as §1

HLF = conditions: lung, epidermoid carcinoma, 72 hours
Description: as §1

Hep G2 = conditions: Hep G2, liver, hepatocellular carcinoma, 72 hours
Description: as §1

Huh-1 = conditions: Huh-1, liver, hepatocellular carcinoma, 72 hours
Description: as §1

IMR32 = conditions: IMR32, brain, neuroblastoma, 72 hours
Description: as §1

KNS-81 = conditions: KNS-81, brain, glioblastoma, 72 hours
Description: as §1

LN229 = conditions: LN229, brain, glioblastoma, 72 hours
Description: as §1

LS174T = conditions: colon carcinoma, 72 hours
Description: as §1

M059K = conditions: brain, glioblastoma, 72 hours
Description: as §1

MDA-MB-231 = conditions: MDA-MB-231, breast carcinoma, 72 hours
Description: as §1

NCI-H1581 = conditions: NCI-H1581, lung, NSCLC, 72 hours
Description: as §1

NCI-H1792 = conditions: NCI-H1792, lung carcinoma, 72 hours
Description: as §1

NCI-H1838 = conditions: NCI-H1838, lung, NSCLC, 72 hours
Description: as §1

NCI-H2228 = conditions: NCI-H2228, lung, NSCLC, 72 hours
Description: as §1

NCI-H441 = conditions: NCI-H441, lung carcinoma, 72 hours
Description: as §1

NCI-H520 = conditions: NCI-H520, lung carcinoma, 72 hours
Description: as §1

SK-HEP-1 = conditions: SK-HEP-1, liver, hepatocellular carcinoma, 72 hours
Description: as §1

SK-N-AS = conditions: brain, neuroblastoma, 72 hours
Description: as §1

SNU-182 = conditions: SNU-182, liver, hepatocellular carcinoma, 72 hours
Description: as §1

SNU-387 = conditions: SNU-387, liver, hepatocellular carcinoma, 72 hours
Description: as §1

SNU-423 = conditions: SNU-423, liver, hepatocellular carcinoma, 72 hours
Description: as §1

SNU-739 = conditions: SNU-739, liver, hepatocellular carcinoma, 72 hours
Description: as §1

SNU-761 = conditions: SNU-761, lung carcinoma, 72 hours
Description: as §1

SW620 = conditions: SW620, colon carcinoma, 72 hours
Description: as §1

SW948 = conditions: SW948, colon carcinoma, 72 hours
Description: as §1

T47D = conditions: breast carcinoma, 72 hours
Description: as §1

T98G = conditions: brain, glioblastoma, 72 hours
Description: as §1

U251 = conditions: U251, brain, glioblastoma, 72 hours
Description: as §1

Molecule CCN1CCN(Cc2ccc(Nc3ncc(F)c(-c4cc(F)c5nc(C)n(C(C)C)c5c4)n3)nc2)CC1 [Abemaciclib, abemaciclib, reference compound] has an IC50 (A549; Homo sapiens) of 104 nM, an IC50 (Caco-2; Homo sapiens) of 395 nM and an IC50 (DLD-2; Homo sapiens, DLD2) of 237 nM. The IC50 (Daoy; Homo sapiens) was > 10 µM, the IC50 (HCCC9810; Homo sapiens) was 71 nM and the IC50 (HCT15; Homo sapiens, HCT-15) was 294 nM. For the same molecule, the IC50 (HL7702; Homo sapiens, L02) was 1720 nM, the IC50 (HLE; Homo sapiens) was 389 nM and the IC50 (HLF; Homo sapiens) was 4.95 µM. For the same molecule, the IC50 (Hep G2; Homo sapiens, HepG2) was 3200 nM, the IC50 (Huh-1; Homo sapiens) was 365 nM and the IC50 (IMR32; Homo sapiens, IMR-32) was 25 nM. It also gave an IC50 (KNS-81; Homo sapiens) of 106 nM, an IC50 (LN229; Homo sapiens, LN-229) of 35 nM and an IC50 (LS174T; Homo sapiens) of 96 nM. It also gave an IC50 (M059K; Homo sapiens) of 871 nM, an IC50 (MDA-MB-231; Homo sapiens) of 48 nM and an IC50 (NCI-H1581; Homo sapiens) of 3230 nM. For the same molecule, the IC50 (NCI-H1792; Homo sapiens) was 23 nM, the IC50 (NCI-H1838; Homo sapiens) was 90 nM and the IC50 (NCI-H2228; Homo sapiens) was 2070 nM. The IC50 (NCI-H441; Homo sapiens) was 40 nM, the IC50 (NCI-H520; Homo sapiens) was 364 nM and the IC50 (SK-HEP-1; Homo sapiens, SK-HEP1) was 6 nM. For the same molecule, the IC50 (SK-N-AS; Homo sapiens) was 138 nM, the IC50 (SNU-182; Homo sapiens) was > 10000 nM and the IC50 (SNU-387; Homo sapiens) was 193 nM. The IC50 (SNU-423; Homo sapiens) was 48 nM, the IC50 (SNU-739; Homo sapiens) was 383 nM and the IC50 (SNU-761; Homo sapiens) was 54 nM. For the same molecule, the IC50 (SW620; Homo sapiens, SW-620) was 10 nM, the IC50 (SW948; Homo sapiens) was 586 nM and the IC50 (T47D; Homo sapiens) was 12 nM. The IC50 (T98G; Homo sapiens) was 168 nM and the IC50 (U251; Homo sapiens, U-251) was 151 nM.
With CC1=Nc2c(F)cc(-c3nc(Nc4ccc(C5CCN(C)CC5)cn4)ncc3F)cc2C12CCCC2 [GLR2007] the IC50 (A549) was 66 nM, the IC50 (Caco-2) was 453 nM and the IC50 (DLD-2) was 33 nM. For the same molecule, the IC50 (Daoy) was 3.96 µM, the IC50 (HCCC9810) was 30 nM and the IC50 (HCT15) was 43 nM. It also gave an IC50 (HL7702) of 1940 nM, an IC50 (HLE) of 143 nM and an IC50 (HLF) of 2.01 µM. For the same molecule, the IC50 (Hep G2) was 2550 nM, the IC50 (Huh-1) was 261 nM and the IC50 (IMR32) was 21 nM. For the same molecule, the IC50 (KNS-81) was 33 nM, the IC50 (LN229) was 17 nM and the IC50 (LS174T) was 160 nM. It also gave an IC50 (M059K) of 3250 nM, an IC50 (MDA-MB-231) of 44 nM and an IC50 (NCI-H1581) of 1120 nM. It also gave an IC50 (NCI-H1792) of 3 nM, an IC50 (NCI-H1838) of 48 nM and an IC50 (NCI-H2228) of 2050 nM. For the same molecule, the IC50 (NCI-H441) was 7 nM, the IC50 (NCI-H520) was 241 nM and the IC50 (SK-HEP-1) was 36 nM. It also gave an IC50 (SK-N-AS) of 66 nM, an IC50 (SNU-182) of 2240 nM and an IC50 (SNU-387) of 68 nM. It also gave an IC50 (SNU-423) of 19 nM, an IC50 (SNU-739) of 100 nM and an IC50 (SNU-761) of 8 nM. The IC50 (SW620) was 10 nM, the IC50 (SW948) was 189 nM and the IC50 (T47D) was 1 nM. It also gave an IC50 (T98G) of 110 nM and an IC50 (U251) of 53 nM.
